# Numbers after ± are expanded uncertainties.
# Key:
# [1] = 101 kPa, Liquid
# [2] = refractive index (Na D-line) (dimensionless); conditions: 293.15 K; 101.33 kPa; Liquid; Standard Abbe refractometry
# [3] = xn = mol fraction of the nth substance listed; conditions: 101 kPa, Liquid
compound,measurement,setting,value
"Cc1ccccc1C [1,2-dimethylbenzene]",mass density,[1]; 293.15 K,878.6 ± 1.6 kg/m3
same,mass density,[1]; 303.15 K,872.25 ± 1.7 kg/m3
same,mass density,[1]; 313.15 K,859.67 ± 1.8 kg/m3
same,mass density,[1]; 323.15 K,840.84 ± 1.9 kg/m3
same,refractive index,[2],1.50573 ± 0.00072
"Cc1ccccc1C [1,2-dimethylbenzene] + O=[N+]([O-])c1ccccc1",mass density,"[3]; 293.15 K, x1 = 1",878.6 ± 1.6 kg/m3
same,mass density,"[3]; 303.15 K, x1 = 1",872.25 ± 1.7 kg/m3
same,mass density,"[3]; 313.15 K, x1 = 1",859.67 ± 1.8 kg/m3
same,mass density,"[3]; 323.15 K, x1 = 1",840.84 ± 1.9 kg/m3
"Cc1cccc(C)c1 [1,3-dimethylbenzene]",mass density,[1]; 293.15 K,864.2 ± 2.5 kg/m3
same,mass density,[1]; 303.15 K,855.76 ± 2.6 kg/m3
same,mass density,[1]; 313.15 K,847.11 ± 2.6 kg/m3
same,mass density,[1]; 323.15 K,838.27 ± 2.7 kg/m3
same,mass density,[1]; 333.15 K,829.22 ± 2.7 kg/m3
same,mass density,[1]; 343.15 K,819.97 ± 2.8 kg/m3
same,mass density,[1]; 353.15 K,810.51 ± 2.9 kg/m3
same,refractive index,[2],1.49735 ± 0.00082
"Cc1cccc(C)c1 [1,3-dimethylbenzene] + O=[N+]([O-])c1ccccc1",mass density,"[3]; 293.15 K, x1 = 1",864.2 ± 2.5 kg/m3
same,mass density,"[3]; 303.15 K, x1 = 1",855.76 ± 2.6 kg/m3
same,mass density,"[3]; 313.15 K, x1 = 1",847.11 ± 2.6 kg/m3
same,mass density,"[3]; 323.15 K, x1 = 1",838.27 ± 2.7 kg/m3
same,mass density,"[3]; 333.15 K, x1 = 1",829.22 ± 2.7 kg/m3
same,mass density,"[3]; 343.15 K, x1 = 1",819.97 ± 2.8 kg/m3
same,mass density,"[3]; 353.15 K, x1 = 1",810.51 ± 2.9 kg/m3
"Cc1ccc(C)cc1 [1,4-dimethylbenzene]",mass density,[1]; 293.15 K,861 ± 1.9 kg/m3
same,mass density,[1]; 303.15 K,852.28 ± 2 kg/m3
same,mass density,[1]; 313.15 K,843.58 ± 2.1 kg/m3
same,mass density,[1]; 323.15 K,834.92 ± 2.1 kg/m3
same,mass density,[1]; 333.15 K,826.27 ± 2.2 kg/m3
same,mass density,[1]; 343.15 K,817.66 ± 2.3 kg/m3
same,mass density,[1]; 353.15 K,809.07 ± 2.4 kg/m3
same,refractive index,[2],1.49577 ± 0.00075
"Cc1ccc(C)cc1 [1,4-dimethylbenzene] + O=[N+]([O-])c1ccccc1",mass density,"[3]; 293.15 K, x1 = 1",861 ± 1.9 kg/m3
same,mass density,"[3]; 303.15 K, x1 = 1",852.28 ± 2 kg/m3
same,mass density,"[3]; 313.15 K, x1 = 1",843.58 ± 2.1 kg/m3
same,mass density,"[3]; 323.15 K, x1 = 1",834.92 ± 2.1 kg/m3
same,mass density,"[3]; 333.15 K, x1 = 1",826.27 ± 2.2 kg/m3
same,mass density,"[3]; 343.15 K, x1 = 1",817.66 ± 2.3 kg/m3
same,mass density,"[3]; 353.15 K, x1 = 1",809.07 ± 2.4 kg/m3
c1ccccc1 [benzene],mass density,[1]; 293.15 K,877.8 ± 1.6 kg/m3
same,mass density,[1]; 303.15 K,867.99 ± 1.7 kg/m3
same,mass density,[1]; 313.15 K,857.87 ± 1.8 kg/m3
same,mass density,[1]; 323.15 K,847.4 ± 1.9 kg/m3
same,mass density,[1]; 333.15 K,836.59 ± 2 kg/m3
same,mass density,[1]; 343.15 K,825.42 ± 2.1 kg/m3
same,refractive index,[2],1.5009 ± 0.0007
c1ccccc1 [benzene] + O=[N+]([O-])c1ccccc1,mass density,"[3]; 293.15 K, x1 = 1",877.8 ± 1.6 kg/m3
same,mass density,"[3]; 303.15 K, x1 = 1",867.99 ± 1.7 kg/m3
same,mass density,"[3]; 313.15 K, x1 = 1",857.87 ± 1.8 kg/m3
same,mass density,"[3]; 323.15 K, x1 = 1",847.4 ± 1.9 kg/m3
same,mass density,"[3]; 333.15 K, x1 = 1",836.59 ± 2 kg/m3
same,mass density,"[3]; 343.15 K, x1 = 1",825.42 ± 2.1 kg/m3
CCc1ccccc1 [ethylbenzene],mass density,[1]; 293.15 K,867.82 ± 14 kg/m3
same,mass density,[1]; 303.15 K,858.6 ± 14 kg/m3
same,mass density,[1]; 313.15 K,851.85 ± 15 kg/m3
same,refractive index,[2],1.4962 ± 0.0008
CCc1ccccc1 [ethylbenzene] + O=[N+]([O-])c1ccccc1,mass density,"[3]; 293.15 K, x1 = 1",867.82 ± 14 kg/m3
same,mass density,"[3]; 303.15 K, x1 = 1",858.6 ± 14 kg/m3
same,mass density,"[3]; 313.15 K, x1 = 1",851.85 ± 15 kg/m3
same,mass density,"[3]; 323.15 K, x1 = 1",847.58 ± 15 kg/m3
same,mass density,"[3]; 333.15 K, x1 = 1",845.79 ± 15 kg/m3
same,mass density,"[3]; 343.15 K, x1 = 1",846.48 ± 15 kg/m3
O=[N+]([O-])c1ccccc1 [nitrobenzene],mass density,[1]; 293.15 K,1202.95 ± 2.3 kg/m3
same,mass density,[1]; 303.15 K,1193.56 ± 2.2 kg/m3
same,mass density,[1]; 313.15 K,1183.37 ± 2.1 kg/m3
same,mass density,[1]; 323.15 K,1172.38 ± 2 kg/m3
same,mass density,[1]; 333.15 K,1160.59 ± 1.9 kg/m3
same,mass density,[1]; 343.15 K,1148 ± 1.9 kg/m3
same,mass density,[1]; 353.15 K,1134.61 ± 1.8 kg/m3
same,refractive index,[2],1.55488 ± 0.00072
O=[N+]([O-])c1ccccc1 [nitrobenzene] + C=Cc1ccccc1,mass density,"[3]; 293.15 K, x2 = 0",1202.95 ± 2.3 kg/m3
same,mass density,"[3]; 303.15 K, x2 = 0",1193.56 ± 2.2 kg/m3
same,mass density,"[3]; 313.15 K, x2 = 0",1183.37 ± 2.1 kg/m3
same,mass density,"[3]; 323.15 K, x2 = 0",1172.38 ± 2 kg/m3
same,mass density,"[3]; 333.15 K, x2 = 0",1160.59 ± 1.9 kg/m3
same,mass density,"[3]; 343.15 K, x2 = 0",1148 ± 1.9 kg/m3
same,mass density,"[3]; 353.15 K, x2 = 0",1134.61 ± 1.8 kg/m3
C=Cc1ccccc1 [styrene],mass density,[1]; 293.15 K,906 ± 1.4 kg/m3
same,mass density,[1]; 303.15 K,896.44 ± 1.5 kg/m3
same,mass density,[1]; 313.15 K,886.88 ± 1.6 kg/m3
same,mass density,[1]; 323.15 K,877.32 ± 1.6 kg/m3
same,mass density,[1]; 333.15 K,867.76 ± 1.7 kg/m3
same,mass density,[1]; 343.15 K,858.2 ± 1.8 kg/m3
same,mass density,[1]; 353.15 K,848.64 ± 1.9 kg/m3
same,refractive index,[2],1.546 ± 0.0007
Cc1ccccc1 [toluene],mass density,[1]; 293.15 K,866.75 ± 2.5 kg/m3
same,mass density,[1]; 303.15 K,857.53 ± 2.6 kg/m3
same,mass density,[1]; 313.15 K,848.25 ± 2.6 kg/m3
same,mass density,[1]; 323.15 K,838.9 ± 2.7 kg/m3
same,mass density,[1]; 333.15 K,829.5 ± 2.7 kg/m3
same,mass density,[1]; 343.15 K,820.03 ± 2.8 kg/m3
same,mass density,[1]; 353.15 K,810.5 ± 2.9 kg/m3
same,refractive index,[2],1.4965 ± 0.0008
Cc1ccccc1 [toluene] + O=[N+]([O-])c1ccccc1,mass density,"[3]; 293.15 K, x1 = 1",866.75 ± 2.5 kg/m3
same,mass density,"[3]; 303.15 K, x1 = 1",857.53 ± 2.6 kg/m3
same,mass density,"[3]; 313.15 K, x1 = 1",848.25 ± 2.6 kg/m3
same,mass density,"[3]; 323.15 K, x1 = 1",838.9 ± 2.7 kg/m3
same,mass density,"[3]; 333.15 K, x1 = 1",829.5 ± 2.7 kg/m3
same,mass density,"[3]; 343.15 K, x1 = 1",820.03 ± 2.8 kg/m3
same,mass density,"[3]; 353.15 K, x1 = 1",810.5 ± 2.9 kg/m3

# — the NIST ThermoML archive (doi:10.1016/j.jct.2004.12.008)
